What was measured:
[1] = tested on: PS-exposing cell membranes; assay: Fluorescence staining of PS-exposing membranes in dissected gonads of C. elegans; format: in vivo; conditions: wild type (N2), tat-1(tm3117) and ced-7(n2094) animals
Procedure: Fluorescence staining assays were carried out in an acceptible C. elegans model with PS-exposing cell membranes. […] NBD-MARCKS-ED was used to stain the dissected gonads of wild type (N2) animals, tat-1(tm3117) mutant animals, and engulfment-deficient ced-7 (n2094) mutant animals, respectively. 36 hour old hermaphrodite adult animals were collected and gently dissected by cutting their heads in a depression slide with a gonad dissection buffer (previously presented) to expose the gonads. The exposed gonads were then washed once in the dissection buffer and transferred to a dissection buffer containing 4 μM of Hoechst 33342 and 20 μM of NBD labeled MARCKS-ED peptide, 20 μM NBD-MARCKSmut1 peptide, or 10 nM Alexa Fluor 488-conjugated Annexin-V for 45 minutes. Gonads were washed one more time in the dissection buffer, placed on a 5% agarose pad, and visualized using a Nomarski microscope equipped with an epifluorescence detector.
FIGS. 6A-6C illustrate exemplary staining results using MARCKS derived peptides and Annexin V. PS is typically kept in the inner leaflet of plasma membranes in living cells and is exposed on the cell surface only under certain cellular events, i.e., when cells undergo apoptosis or lose the ability to maintain the PS asymmetry with a tat-1 gene mutation. FIG. 6A represents the staining results with labeled MARCKS-ED in wild type and mutants C. elegans. […] FIG. 6B represents the staining results with labeled MARCKSmut1 in wild type and mutants C. elegans. […] In FIGS. 6A-6B, nuclei were stained with Hoechst 33342. Annexin-V, a known PS-sensor, was also used to stain the gonads of tat-1 and ced-7 mutant C. elegans. […] Hoechst33342 (4 μM), FITC-AnnexinV (10 nM) and Nomarski images are shown. […] Scale bar=10 μm.

microvesicles in plasma = assay: Nanoparticle tracking analysis of microvesicles in plasma from stressed rats treated with MARCKS peptides; format: binding, rat; conditions: Alexa Fluor 546 labeled peptides 55 nM
Procedure: These isolated microvesicles were measured by nanoparticle tracking analysis (NTA) to confirm their average size (ø=56 nm). Tracking analyses were performed using the NanoSight LM10-HS instrument (Amesbury, UK) equipped with a 532 nm laser and observed at scatter and fluorescence modes (filter=550 nm). The instrument was calibrated using commercially available 50 nm polystyrene beads. […] Alexa Fluor 546™-labeled mouse anti-rat CD63 and unconjugated Alexa Fluor 546™ were used as positive and negative controls, respectively. The profiles of MARCKS-ED-Alexa Fluor 546™ and Alexa Fluor 546™ in the absence of microvesicles were also investigated to confirm that these show negligible scatter and fluorescence background signals under identical NTA conditions.
FIG. 5A represents fluorescence enhancement assay with MARCKS-ED incubated with the isolated microvesicles. Peptide MARCKS-ED ([…]) not treated with microvesicles was used as a negative control. Annexin-V (a positive control) and MARCKS-ED were incubated with the isolated rat microvesicles. Fluorescence was normalized to the negative control. […] The diameter size and particle count of the isolated microvesicles detected by MARCKS-ED was further quantified. Nanoparticle tracking analysis (NTA) uses a laser for scatter and fluorescence modes to track small particles by Brownian motion, providing a robust method for detecting nano-sized microvesicles. Under the fluorescence mode with the emission filter set for the Alexa Fluor 546™, the particles that bound to MARCKS-ED, MARCKSmut1, and MARCKSmut2peptides were observed.
FIG. 5B illustrates the results of NTA of microvesicles treated with MARCKS derived peptides. […] The untreated plasma samples were detected using the scatter mode and treated samples were monitored by tracking the fluorescence of Alexa Fluor 546™ conjugated to the MARCKS-ED MARCKSmut1 and MARCKSmut2 peptides. […] Furthermore, blank samples were performed to rule out possible artifacts of background fluorescence from the peptides, the vesicles and the unconjugated dye.

synthetic lipid vesicles = assay: Fluorescence enhancement assay of NBD-labeled MARCKS peptides with synthetic vesicles; format: binding
Excerpt: In another exemplary method, lipid vesicles were employed to the curvature-sensing behavior of the MARCKS derived peptides with various sizes and lipid components. The membrane curvature is defined as the reciprocal of the diameter of a particular particle, e.g., smaller-sized vesicles present highly curved membrane bilayers. A series of lipid models were made to represent various lipid components that closely resemble the lipid composition of biological membranes. […] Dynamic light scattering (DLS) and negative-stain transmission electron microscopy (TEM) were performed to confirm the different vesicle sizes following the pressure-controlled extrusion process through different membrane diameter pores. Commercial polystyrene beads were used as the calibration standard for the vesicle size validation experiments. Furthermore, a time-course experiment was carried out to confirm the stability of the vesicles up to 16 hours. Three different membrane diameters were extruded for the following biophysical characterizations: 30 nm, 100 nm, 400 nm, reflecting different membrane curvatures.
Next, a fluorescence enhancement assay was conducted to further quantify the curvature- and PS-sensing behavior of MARCKS-ED. Appropriate controls were performed to confirm that the fluorophore alone had no effect on the observed fluorescence enhancement (data not shown). FIG. 4 represents histogram data of fluorescence enhancement assay with and fluorescence anisotropy titration of the NBD labeled MARCKS derived peptides. Upon binding to lipid vesicles, the fluorescence intensity of NBD-MARCKS-ED increased due to vesicle binding and changes in the hydrophobic environment surrounding the fluorophore, concurring with a slight blue shift of the maximum emission wavelength. The emission spectra of all NBD-labeled peptides were recorded using a Fluorolog-3 fluorometer with λex=480 nm. The peptides and protein were tested at a concentration of 500 nM in PBS (pH 7.40) treated with 500 μM synthetic vesicles of different vesicles sizes. […] The positive control C2AB (200 nM) from the rat Synaptotagmin-1 (Syn-1) protein (G374, residues 96-421) was treated with CaCl2 (2.5 mM) and observed with λex of 275 nm and emission range of 300-450 nm. The untreated peptide and Ca^2+-C2AB samples were corrected by the PBS (pH=7.40) blank solution for the peptides and PBS with Ca^2+ for the Ca^2+-C2AB sample. All samples were prepared and incubated overnight in 4° C.
FIG. 4A illustrates a histogram plot of fluorescence intensity of MARCKS-ED treated with lipid vesicles of various sizes. […] Last, the fluorescence intensity differences were less significant with vesicles containing no PS. […]

KKKKKRFSFKKSFKLSGFSFKKNKK [MARCKS-ED] was tested, and the “staining of PS-exposed membranes” value [1] was “recognizes PS exposed on the surface of all germ cells in the tat-1 (tm3117) mutant and un-engulfed apoptotic germ cell corpses in the ced-7(n2094) mutant”, the “binding to microvesicles in whole plasma (NTA fluorescence mode)” value (microvesicles in plasma) was “selectively bind to small-sized microvesicles in whole plasma” and the “reversal of binding by CaM” value (synthetic lipid vesicles; addition of CaM) was “could be partially reversed”. The “fluorescence intensity increase, 30 nm vs 400 nm vesicles” value (synthetic lipid vesicles; peptide 500 nM, 500 μM vesicles containing PS) was “approximately 1.5 fold”.
